Where “and” joins values, the source holds several entries; their conditions need not be identical. Equal values may be shown once.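 Tested at 5 concentrations; 48 h exposure; 96-well plates; endpoints linearly interpolated, else capped at highest concentration. GI50 is the concentration that inhibits growth by half. At the TGI there is no net growth.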
Tests used:
Test in all cases: inhibition of tumour cell growth, NCI panel, 48 h
NCI-H460 lung = system: NCI-H460 lung
SK-MEL-28 melanoma = system: SK-MEL-28 melanoma
U251 CNS = system: U251 CNS
NCI-H23 lung = system: NCI-H23 lung
RPMI-8226 leukemia = system: RPMI-8226 leukemia
HS 578T breast = system: HS 578T breast
COLO 205 colon = system: COLO 205 colon
UACC-62 melanoma = system: UACC-62 melanoma
OVCAR-8 ovarian = system: OVCAR-8 ovarian
NCI/ADR-RES ovarian = system: NCI/ADR-RES ovarian

Row | Structure (SMILES) | TGI (NCI-H460 lung) | TGI (SK-MEL-28 melanoma) | TGI (U251 CNS) | TGI (NCI-H23 lung) | TGI (RPMI-8226 leukemia) | TGI (HS 578T breast) | TGI (COLO 205 colon) | TGI (UACC-62 melanoma) | TGI (OVCAR-8 ovarian) | TGI (NCI/ADR-RES ovarian) | GI50 (NCI-H460 lung) | GI50 (SK-MEL-28 melanoma) | GI50 (U251 CNS) | GI50 (NCI-H23 lung) | GI50 (RPMI-8226 leukemia) | GI50 (HS 578T breast) | GI50 (COLO 205 colon) | GI50 (UACC-62 melanoma) | GI50 (OVCAR-8 ovarian) | GI50 (NCI/ADR-RES ovarian)
1 | CSc1ccc2c(c1)N(CCCN(C)C)c1ccccc1S2 | 26.5 µM | 6.7 µM | 27.1 µM | 31.5 µM | 28.5 µM | 28.7 µM | 31.7 µM | 22.4 µM | 36.1 µM | 26.2 µM |  |  |  |  |  |  |  |  |  | 
2 | CCCC/C=C1/CCC(CN(C)C)C1=O (configuration not stated) | 26.8 µM | 3.93 µM | 4.19 µM | 8.18 µM | 0.897 µM | 15 µM | 3.04 µM | 4.96 µM | 4.08 µM | 15 µM | 9.87 µM |  |  |  |  |  |  |  |  | 
3 | COc1ccc(N=C2C(=O)Nc3ccc(Br)cc32)cc1 | 78.4 µM | 84.6 µM | 96.8 µM | 45 µM | 25.2 µM | > 100 µM | 34.6 µM | 19.9 µM | 32.2 µM | 87.9 µM |  |  |  |  |  |  |  |  |  | 
4 | C=C1CCC2C(C)(CO)C(O)CCC2(C)C1C/C=C1\C(=O)OCC1O (configuration not stated) | 59.2 µM | 27.3 µM | 23.1 µM | 49.8 µM | 49.9 µM | > 100 µM | 27.9 µM | 57.5 µM | 22.6 µM | > 100 µM |  |  |  |  |  |  |  |  |  | 
5 | CNc1ccc(CSc2ccc(C)cc2)cc1 | > 100 µM | > 100 µM | > 100 µM | > 100 µM | 21.6 µM | > 100 µM | 29.3 µM | 52.9 µM | > 100 µM | > 100 µM | 25.3 µM | 20.3 µM | 9.85 µM | 25 µM | 1.52 µM | 56 µM | 15.7 µM | 17.3 µM | 40.5 µM | 21.4 µM
6 | O=C([CH-]C(=O)c1ccccc1)c1ccccc1.[CH2-]C.[CH2-]C.[Tl+3] | > 100 µM | > 100 µM | > 100 µM | > 100 µM | > 66 µM | > 100 µM | > 100 µM | 87.6 µM | > 86.5 µM | > 100 µM | 10.8 µM | 33.5 µM | 11.8 µM | 32.3 µM | 10.4 µM | 31.7 µM | 26.6 µM | 20.8 µM | 15.7 µM | 26.1 µM
7 | CC(C)(C)OC(=O)CC(S(=O)(=O)c1ccccc1)S(=O)(=O)c1ccccc1 | 39.4 µM | 25.6 µM | 35.9 µM | 32.1 µM | 19.7 µM | 81.4 µM | 3.32 µM | 24.1 µM | 23.3 µM | 37.8 µM | 19.5 µM | 12.9 µM | 17.2 µM | 14.6 µM | 3.49 µM | 22 µM | 1.89 µM | 11.4 µM | 8.32 µM | 17.4 µM
8 | CN(Cc1cnc2nc(N)nc(N)c2n1)c1c(Cl)cc(C(=O)NC(CCC(=O)O)C(=O)O)cc1Br (configuration not stated) | > 100 µM | > 100 µM | > 100 µM | > 100 µM | > 100 µM | > 100 µM | > 100 µM | > 100 µM | > 100 µM | > 100 µM | < 0.01 µM | > 23.8 µM | < 0.0237 µM | 0.016 µM | < 0.01 µM | 17.8 µM | 0.0535 µM | < 0.0118 µM | < 0.01 µM | < 0.01 µM
9 | c1ccc2[nH]c(-c3cscn3)nc2c1 | > 100 µM | > 100 µM | > 100 µM | > 100 µM | > 100 µM | > 100 µM | > 100 µM | > 100 µM | > 100 µM | > 100 µM |  |  |  |  | > 100 µM and 31.7 µM |  |  |  |  | 
10 | COc1cc(C(=O)Nc2ccc(-c3nc4ccccc4[nH]3)cc2)cc(OC)c1OC | 22.7 µM | 28.6 µM | 23.4 µM | 34.6 µM | 30.6 µM | 19.3 µM | 39.1 µM | 24.4 µM | 28.5 µM | 73.4 µM | 5.74 µM | 13.7 µM | 10.2 µM | 11.9 µM | 6.35 µM | 3.54 µM | 15.3 µM | 9.89 µM | 7.53 µM | 13 µM
11 | COc1ccc2cc1Oc1ccc(cc1)CC1c3c(cc(OC)c4c3Oc3cc5c(cc3O4)CCNC5C2)CCN1C (configuration not stated) | 3.25 µM | 3.5 µM and 3.54 µM | 3.2 µM | 4.54 µM and 3.22 µM | 4.3 µM and 3.42 µM | 4.71 µM and 4.59 µM | 3.41 µM | 3.43 µM | 3.2 µM | 3.62 µM and 3.19 µM | 1.62 µM | 1.84 µM | 1.68 µM | 1.53 µM | 1.61 µM | 1.98 µM |  |  |  | 1.55 µM
12 | Cc1cc(=O)[nH]c2c1C(=O)c1c(C)cc(=O)n(C)c1C2=O | 0.364 µM | 0.0351 µM | 0.242 µM | 0.03 µM | > 9.41 µM | 0.154 µM | 0.037 µM | 0.0332 µM | 0.207 µM | 0.259 µM |  |  |  |  |  |  |  |  |  | 
13 | CC(C)OC(=O)c1cc(NC(=S)OC(C)C)ccc1Cl | > 55.3 µM | > 57 µM | > 57.6 µM | 68.1 µM | > 76.8 µM | > 79.8 µM | 22.2 µM | 31.2 µM | > 64.8 µM | > 63.4 µM |  |  |  |  |  |  |  |  |  | 
14 | COc1ccc(-c2nn(-c3cccc(Cl)c3)cc2-c2c(C#N)c(=O)n3[nH]c(-c4ccc(C)o4)nc3c2C#N)cc1 | > 50 µM | 21.1 µM | > 50 µM | > 50 µM | > 50 µM | > 50 µM | 11.6 µM | 42.7 µM | > 50 µM | > 50 µM | 6.38 µM | 5.51 µM | 4.71 µM | 8.09 µM | 5.68 µM | 2.95 µM | 5.47 µM | 6.46 µM | 5.91 µM | > 50 µM
15 | COc1cc(C(=O)/C=C/c2c(C)n([O-])c3ccc(Cl)cc3[n+]2=O)cc(OC)c1OC | 36.6 µM | 52.9 µM | 72.3 µM | 68.6 µM | 33.4 µM | 8.97 µM | 4.54 µM | 23.1 µM | > 100 µM | 35.8 µM | 12.5 µM | 10.8 µM | 4.52 µM | 7.59 µM | 3.18 µM | 1.75 µM | 1.53 µM | 3.87 µM | 3.18 µM | 4.89 µM
16 | COc1ccc(-c2nc3sccn3c2/C=C/C(=O)c2cc(OC)c(OC)c(OC)c2)cc1 | 11.1 µM | 51.8 µM | > 100 µM | > 28.7 µM | 7.56 µM | > 24.1 µM | 13 µM | 9.15 µM | > 21.8 µM | > 28 µM | 2.54 µM | 4.05 µM | 3.04 µM | 2.49 µM | 2.24 µM | 2.18 µM | 2.82 µM | 2.08 µM | 3.03 µM | 2.66 µM
17 | Clc1cc(Cl)cc(Nc2ccc3c(OCCCN4CCOCC4)cccc3n2)c1 | 5.86 µM | 3.3 µM | 3.95 µM | 10.2 µM | 8.33 µM | 8.14 µM | 3.56 µM | 4.57 µM | 13.3 µM | 9.29 µM | 2.42 µM | 1.65 µM | 1.98 µM | 2.94 µM | 2.8 µM | 2.51 µM | 1.77 µM | 2.01 µM | 3.54 µM | 2.88 µM
18 | COc1cc(/C=C/C(=O)/C=C/c2ccc(-n3ccnc3)cc2)ccc1O | 34.9 µM | 6.49 µM | 5.24 µM | 5.04 µM | 4.46 µM | > 100 µM | 10.1 µM | 30.2 µM | > 100 µM | > 100 µM | 14.1 µM | 2.42 µM | 2.21 µM | 2.07 µM | 1.54 µM | 2.91 µM | 3.26 µM | 5.01 µM | 3.58 µM | 15.9 µM
19 | O=C(/C=C/c1ccccn1)c1ccccc1 | 18.1 µM | 19.2 µM | 5.43 µM | 34.8 µM | 6.6 µM | 39.4 µM | 14.6 µM | 7 µM | 16.1 µM | 12.1 µM | 4.44 µM | 6.09 µM | 1.94 µM | 16.3 µM | 2.37 µM | 12.5 µM | 4.04 µM | 2.33 µM | 4.18 µM | 3.01 µM
20 | CN1CCC(C(=O)Nc2n[nH]c3nnc(-c4ccccc4)cc23)CC1 | > 25 µM | > 25 µM | > 25 µM | > 25 µM | > 25 µM | > 25 µM | > 25 µM | > 25 µM | > 25 µM | > 25 µM | > 25 µM | > 25 µM | > 25 µM | > 25 µM | > 25 µM | 16.5 µM | > 25 µM | > 25 µM | > 25 µM | > 25 µM
21 | O=[N+]([O-])/C(=C/C=C/c1ccccc1)c1ccccc1 | 11.3 µM | 4.23 µM | 3.17 µM | 6.16 µM | 1.55 µM | 8.41 µM | 3.35 µM | 3.1 µM | 11.2 µM | 11.9 µM | 3.3 µM | 2.09 µM | 1.67 µM | 2.25 µM | 0.118 µM | 2.86 µM | 1.83 µM | 1.55 µM | 3.27 µM | 3.56 µM
22 | N#CC(C#N)=C/C=C/c1ccccc1[N+](=O)[O-] | > 10 µM | 5.47 µM | > 10 µM | > 10 µM | > 10 µM | > 10 µM | > 10 µM | 9.39 µM | 3.75 µM | 4.84 µM |  |  |  |  |  |  |  |  |  | 
23 | COC(=O)c1sc(=S)c2sc(C(=O)OC)c(C(=O)OC)c2c1C(=O)OC | > 100 µM | > 100 µM | > 100 µM | > 100 µM | 48.8 µM | > 100 µM | > 100 µM | > 100 µM | > 100 µM | > 100 µM | 44.3 µM | 71.8 µM | 50.5 µM | 44.8 µM | 22 µM | 46.5 µM | 69.8 µM | 36 µM | 57.7 µM | 35.4 µM
24 | CCCCCCCC(=O)OC[n+]1cccc(-c2c(COC(=O)NC(C)C)c(COC(=O)NC(C)C)c3n2CCC3)c1 | > 100 µM | > 100 µM | > 100 µM | > 100 µM | > 100 µM | > 100 µM | > 100 µM | > 100 µM | > 100 µM | > 100 µM |  |  |  |  |  |  |  |  |  | 
25 | CN(C)CC(=O)N1CCc2c([nH]c3ccccc23)C1c1cccnc1 (configuration not stated) | > 100 µM | > 100 µM | > 100 µM | > 100 µM | > 100 µM | > 100 µM | > 100 µM | > 100 µM | > 100 µM | > 100 µM |  |  |  |  |  | 94.1 µM | 99.7 µM |  |  | > 100 µM
26 | CC(=O)OCCc1cc2ccccc2oc1=O | > 100 µM | > 100 µM | > 100 µM | > 100 µM | > 100 µM | > 100 µM | > 100 µM | > 100 µM | > 100 µM | > 100 µM |  |  |  |  |  |  |  |  |  | 

From PubChem BioAssay (NCI)
